In US9176124B2, “Method for measurement of equol in biological sample by immunoassay, kit for the measurement, and method for determination of equol production ability of subject” (OTSUKA PHARMACEUTICAL CO., LTD., priority 2009, dated 2015):

How the values were obtained:
[1] = system: anti-equol rabbit antiserum (primary antibody); assay: Cross-reactivity of the primary antibody by competitive ELISA (Test Example 2); type: binding; details: (IC20 of S-equol/IC20 of each isoflavone, etc.)×100, S-equol assumed 100%, horseradish peroxidase-labeled S-equol as labeled antigen, samples in 100% charcoal-treated human serum
Text: The above cross-reactivity can be explained as follows. Specifically, the above cross-reactivity indicates a ratio (%) of the concentration (IC20) of unlabeled S-equol at which the binding reaction of labeled S-equol to the anti-equol antibody can be inhibited by 20%, to the concentration (IC20) of each isoflavone and the like at which the binding reaction of labeled S-equol to the anti-equol antibody can be inhibited by 20%. More specifically, in the competitive reaction between labeled S-equol and unlabeled S-equol, the concentration of unlabeled S-equol at which the binding of labeled S-equol to the antibody is 80 is determined, assuming that the binding of labeled S-equol alone to the antibody is 100. Similarly, each unlabeled isoflavone and the like are competitively reacted with labeled S-equol, and the concentration of each isoflavone and the like at which binding of labeled S-equol to the antibody is 80 is determined.
The thus-determined ratio (expressed in percentage) between the concentration (IC20) of the unlabeled S-equol and the concentration (IC20) of each isoflavone and the like is referred to as the cross-reactivity. This is represented by the following formula: Cross-reactivity (%)=(IC20 of S-equol/IC20 of each isoflavone, etc.)×100
Herein, the cross-reactivity rate is determined by competitive ELISA, using S-equol as the standard antigen used for the preparation of a standard curve, as well as the labeled antigen that competes with equol in a biological sample.
In this Test Example, the cross-reactivity of the primary antibody was examined for the case where competitive ELISA was employed and S-equol was used as both the standard antigen and the labeled antigen. Specifically, the cross-reactivity was examined as follows.
Each of the isoflavones and the like shown in the later-described Table 4 was dissolved in 100% charcoal-treated human serum, and the resulting solution was used as a sample.
An anti-equol rabbit antiserum was used as the primary antibody, as in Example 1. The antiserum was suitably diluted with the later-described antiserum dilution buffer, and used in the test.
A goat anti-rabbit IgG antibody was used as a secondary antibody, as in Example 1. The antibody was immobilized to a solid phase as in Example 1, thus preparing a plate containing immobilized goat anti-rabbit IgG antibody.
Horseradish peroxidase-labeled S-equol was used as a labeled antigen, as in Example 1.
S-equol was used as a standard antigen, as in Example 1. Note that a standard equol solution in the forth of a mixed solution of S-equol (0, 30, 90, 270, or 810 ng/mL) and 100% charcoal-treated human serum was used.
A concentration dilution series was prepared for each of the isoflavones and the like, and for unlabeled S-equol. The adsorption by each of the isoflavones and the like, and the adsorption by unlabeled S-equol in the competitive reaction were measured from when the concentrations of these substances were 0 to when the concentrations of these substances were added in excess amounts. Each of the thus-obtained measured values was checked against a standard curve obtained from the dilution series of the standard antigen (S-equol), so as to compare the inhibition of the reaction based on each calculated value. Thereby, the concentration (IC20) of each of the isoflavones and the like, as well as the concentration (IC20) of unlabeled S-equol, at which the binding reaction of labeled S-equol to the anti-equol antibody is inhibited by 20%, were determined.
The competitive reaction was performed using competitive ELISA by a procedure similar to that in Example 1. Further, horseradish peroxidase was used as a labeling substance.
The ratio (expressed in percentage) of the thus-obtained concentration of each of the isoflavones and the like to the thus-obtained concentration of unlabeled S-equol was regarded as the cross-reactivity. […]

[2] = system: Labmaster Equol TR-FIA; details: heretofore known kit; cited from earlier work
[3] = system: monoclonal antibody; details: Clinical Chemistry 53: 748-756, 2007; cited from earlier work
[4] = system: Labmaster Equol TR-FIA; assay: Cross-reactivity of the known kit Labmaster Equol TR-FIA; type: binding; details: with daidzein
Text: Further, for example, when Labmaster Equol TR-FIA, which is a heretofore known kit manufactured by Labmaster, is used, the cross-reactivity rate with daidzein is 0.8% (see labmaster.fi/products/tr-fia-kitS-equol-tr-fia.htm), and the cross-reactivity of the kit is 10 times as high as that of the present kit.

Compound	Cross-reactivity Rate [1]	other results
COc1cc2c(=O)c(-c3ccc(O)cc3)coc2cc1O[C@@H]1O[C@H](CO)[C@@H](O)[C@H](O)[C@H]1O [Glycitin]	0.02%	–
COc1ccc(-c2coc3cc(O)cc(O)c3c2=O)cc1 [Biochanin A]	0.11%	–
Oc1ccc(C2=Cc3ccc(O)cc3OC2)cc1 [Dehydroequol]	0.33%	Cross-reactivity Rate [2]: 42.3%; Cross-reactivity Rate ([1]; listed as dehydroequol): 0.33%
O=c1cc(-c2ccc(O)cc2)oc2cc(O)cc(O)c12 [Apigenin]	0.00%	–
O=c1c(-c2ccc(O)cc2)coc2cc(O)cc(O)c12 [Genistein]	0.05%	–
O=C1c2ccc(O)cc2OCC1c1ccc(O)cc1 (centres unmarked) [Dihydrodaizein]	1.03%	Cross-reactivity Rate [2]: 4.0%; Cross-reactivity Rate ([1]; listed as dihydrodaidzein): 1.03%
O=c1c(-c2ccc(O)cc2)coc2cc(O[C@@H]3O[C@H](CO)[C@@H](O)[C@H](O)[C@H]3O)cc(O)c12 [Genistin]	0.06%	–
O=c1c(-c2ccc(O)cc2)coc2cc(O[C@@H]3O[C@H](CO)[C@@H](O)[C@H](O)[C@H]3O)ccc12 [Daidzin]	0.06%	Cross-reactivity Rate ([1]; listed as daidzin): 0.06%
Oc1ccc([C@@H]2COc3cc(O)ccc3C2)cc1 [R-Equol]	13.24%	Cross-reactivity Rate ([1]; listed as R-equol): 13.24%
O=c1c(-c2ccc(O)cc2)coc2cc(O)ccc12 [Daidzein]	0.08%	Cross-reactivity Rate [3]: < 0.04%; Cross-reactivity Rate [2]: 0.8%; Cross-reactivity Rate ([1]; listed as daidzein): 0.08%; cross-reactivity of the Labmaster kit relative to the present kit [4]: 10 times
Oc1ccc([C@H]2COc3cc(O)ccc3C2)cc1 [S-Equol]	100.00%	–
O=c1cc(-c2ccc(O)c(O)c2)oc2cc(O)cc(O)c12 [Luteolin]	0.00%	–
COc1cc2c(=O)c(-c3ccc(O)cc3)coc2cc1O [Glycitein]	0.03%	–
